This is an account of results in patent publication US20250051300A1, “GRAM-NEGATIVE SPECIFIC ANTIBIOTICS SPARING EFFECT ON GUT MICROBIOME” (THE BOARD OF TRUSTEES OF THE UNIVERSITY OF ILLINOIS, priority 2021, published 2025).

The nature of data set [1]: Pharmacokinetic assessment in mice (serum, LC-MS/MS). The data set is classed as in vivo, C57BL/6 mice. The settings on record: for Cmax / half-life / AUC: female, 200 mg/kg single dose; for Cmax / half-life: C57BL/6, mouse, serum; for AUC: C57BL/6, mouse serum. Here is the method:
C57BL/6 mice were treated with lolamcyin at a single dose of 200 mg/kg via IP injection (formulated in 50% DMSO and 50% PEG400) or oral gavage (formulated in 20% DMSO, 30% water, and 50% PEG400) with three mice per time point (0, 15, 30, 45, 60, 120, 240, 480, 960, and 1,440 min). Mice were then sacrificed and serum concentrations of lolamycin were determined by liquid chromatography-tandem mass spectrometry (LC-MS/MS). Oral bioavailability was calculated by comparing the concentration of lolamycin in mouse serum levels resulting from these two administration routes.
Pharmacokinetic Assessment of compound 2 and lolamycin. The protocol was approved by the Institutional Animal Care and Use Committee (IACUC) at the University of Illinois at Urbana-Champaign. In these studies, 10- to 12-week-old female C57BL/6 mice purchased from Charles River Laboratories were used. Mice were randomly chosen and divided into subsequent groups. No additional randomization was used to allocate the experimental groups; blinding was not performed for subsequent quantitation. First, the pharmacokinetic assessment via intraperitoneal injection was determined. Compound 2 and lolamycin were formulated in 50% DMSO and 50% PEG400. Mice were treated with compound 2 (200 mg/kg) or lolamycin (200 mg/kg) via intraperitoneal injection, with three mice per time point (0, 15, 30, 45, 60, 120, 240, 480, 960, and 1,440 min). At the specified time points, mice were killed, blood was collected and centrifuged, and the serum was frozen at −80° C. until analysis. The proteins in a 10-μL aliquot of serum were precipitated by the addition of 50 μL methanol with the addition of 10 μL internal standard. The sample was then vortexed and centrifuged to remove the proteins. Supernatants were analyzed with the QTRAP 5500 LC/MS/MS system (Sciex) in the Metabolomics Laboratory of the Roy J. Carver Biotechnology Center, University of Illinois at Urbana-Champaign.
Next, the pharmacokinetic assessment via oral gavage was determined. Lolamycin was formulated in 20% DMSO, 30% water, and 50% PEG400. Mice were treated with lolamycin (200 mg/kg) via oral gavage, with three mice per time point (0, 15, 30, 45, 60, 120, 240, 480, 960, and 1,440 min). At the specified time points, mice were killed, blood was collected and centrifuged, and the serum was frozen at −80° C. until analysis similar to before. Software Analyst 1.6.2 was used for data acquisition and analysis. The 1200 Series HPLC system (Agilent Technologies) includes a degasser, an autosampler and a binary pump. The liquid chromatography separation was performed on an Agilent Zorbax SB-Aq column (4.6×50 mm; 5 μm) with mobile phase A (0.1% formic acid in water) and mobile phase B (0.1% formic acid in acetonitrile). The autosampler was set at 10° C. The injection volume was 5 μL. Mass spectra were acquired using electrospray ionization with a voltage of 5,500 V. The source temperature was 450° C. The curtain gas, ion source gas 1 and ion source gas 2 were […], respectively. Multiple reaction monitoring was used for quantitation with external standard. The limit of quantitation of (S/N=10) was 1 nM. Pharmacokinetic parameters were calculated with a one-compartment model using a nonlinear regression program (Phoenix WinNonlin Version 8.1; Certara USA).

The subject of a further data set is Bacillus anthracis. Description: microbe, parasite or virus in culture. The data set is classed as cell-based.

Usually Cmax stands for the peak of the concentration-time curve. The term half-life denotes how long it takes for the measured level to halve. For orientation: AUC means concentration integrated over time. Higher therefore signals high exposure. In data set [1] (IP injection), `Cc1cc(-c2c[nH]nc2-c2cccc(OCc3cccc(C#N)c3)c2)cc(C)n1` [Compound 12, 3-((3-(4-(2,6-dimethylpyridin-4-yl)-1H-pyrazol-3-yl)phenoxy)methyl)benzonitrile] gave a Cmax of 38.2 µM, a half-life of 2.07 h and an area under the curve (AUC) of 43400 ng·h/mL. Besides, in data set [1] (oral gavage), the peak level (Cmax) was 26.4 µM, the half-life is 1.1 h and the AUC was 20500 ng·h/mL. In data set [1] (mice, oral vs IP, 200 mg/kg), the Oral bioavailability entry is “significant oral bioavailability”. Also, in the data set with Bacillus anthracis, the MIC was more than 128 µg/mL.
